6 molecules from patent US5849751A, “Amides and sulphonamides of benzylamines having heterocyclic substituents” (Bayer Aktiengesellschaft, priority 1995, dated 1998) can be followed below.

The subject of this assay is release of apoB-100-associated lipoproteins from liver cells (HepG2). Nature of the assay: Inhibition of the release of apoB-100-associated lipoproteins (HepG2 cells, immunoassay). In kind it is cell-based. The conditions noted are these: Homo sapiens; HepG2 culture supernatant, anti-LDL immunoassay, light absorption at 450 nm vs solvent control. The method, then:
1. Inhibition of the release of apoB-100-associated lipoproteins
The test for detection of the inhibition of the release of apoB-100-associated lipoproteins from liver cells was carried out in vitro with cultured liver cells, preferably with cells of the human line HepG2. These cells are cultured under standard conditions in a medium for the culture of eukaryotic cells, preferably in RPMI 1640 with 10% foetal calf serum. HepG2 cells synthesize and secrete into the culture supernatant apoB-100-associated lipoprotein particles, which in principle are similar in structure to the VLDL and LDL particles to be found in plasma.
These particles can be detected with an immunoassay for human LDL. This immunoassay is carried out with antibodies which had been induced in the rabbit against human LDL under standard conditions. The anti-LDL antibodies (rab-anti-LDL- ab) were purified by affinity chromatography on an immunosorbent with human LDL. These purified rab-anti-LDL-ab are adsorbed onto the surface of a plastic. This adsorption is expediently carried out onto the plastic surface of microtitre plates with 96 wells, preferably on MaxiSorp plates. If apoB-100-associated particles are present in the supernatant of Hep-G2 cells, these can bind to the insolubilized rab-anti-LDL-ab, and an immune complex bonded to the plastic surface is formed. Non-bound proteins are removed by washing. The immune complex on the plastic surface is detected with monoclonal antibodies which have been induced against human LDL and purified under standard conditions. These antibodies were conjugated with the enzyme peroxidase. Peroxidase converts the colourless substrate TMB into a coloured product in the presence of H2 O2. After acidification of the reaction mixture with H2 SO4, the specific adsorption of light at 450 nm is determined, this being a measure of the amount of apoB-100-associated particles which have been secreted into the culture supernatant by the HepG2 cells.
The IC50 value indicates the concentration of substance at which the adsorption of light is inhibited by 50% compared with the control (solvent control without substance).
Regarding `Cc1cc(C)c2c3ccccc3n(Cc3ccc(C(N)C4CCCC4)cc3)c2n1` (racemic) [Example 1, 9-{4-[1-(R,S1-Amino-1-cyclopentyl-methyl]phenyl-methyl}-2,4-dimethyl-(α-carboline], the IC50 is > 2000 nM.

`COc1ccc(CC(=O)NC(c2ccc(Cn3c4ccccc4c4c(C)cc(C)nc43)cc2)C2CCCC2)cc1` (stereo not drawn) [Example 5] showed an IC50 of 38 nM.

`Cc1cc(C)c2c3ccccc3n(Cc3ccc(C(NC(=O)C(=NO)c4ccccc4)C4CCCC4)cc3)c2n1` (racemic) [Example 24, 9-{4-[1-(R,S)-1-(2-(E,Z)-2-hydroxyimino-2-phenyl-acetyl)amino-1-cyclopentyl-methyl]phenyl-methyl}-2,4-dimethyl-α-carboline] yielded an IC50 of 300 nM.

In turn, `Cc1cc(C)c2c3ccccc3n(Cc3ccc(C(NS(=O)(=O)Cc4ccccc4)C4CCCC4)cc3)c2n1` (stereo not drawn) [Example 3] yielded an IC50 of 460 nM.

The molecule `Cc1cc(C)c2c3ccccc3n(Cc3ccc(C(NC(=O)C(O)c4ccccc4)C4CCCC4)cc3)c2n1` (racemic) [Example 18, 9-{4-[1-(R,S)-1-(2-(R,S)-2-Phenyl-2-hydroxy-acetyl)amino-1-cyclopentyl-methyl]phenyl-methyl}-2,4-dimethyl-α-carboline] yielded an IC50 of 39 nM.

As for `Cc1cc(C)c2c3ccccc3n(Cc3ccc(C(NC(=O)Cc4ccccc4)C4CCCC4)cc3)c2n1` (stereo not drawn) [Example 4], inhibition was half-maximal at 34 nM (IC50).

As usually defined, the IC50 is the concentration that inhibits the measured activity by half. Low values mean inhibition by little substance, high ones a need for much substance.
